Results as given in ChEMBL document CHEMBL4507324 (2021).

Tests used:
Conditions in all cases: Compound concentration 100.0 nM
[1] = molecular target: Casein kinase I isoform alpha-like (Homo sapiens) (UniProt Q8N752)
[2] = molecular target: MAP kinase-activated protein kinase 2 (Homo sapiens) (UniProt P49137)
[3] = molecular target: G protein-coupled receptor kinase 4 (Homo sapiens) (UniProt P32298)
[4] = molecular target: Serine/threonine-protein kinase pim-1 (Homo sapiens) (UniProt P11309)
[5] = molecular target: Serine/threonine-protein kinase Nek11 (Homo sapiens) (UniProt Q8NG66)
[6] = molecular target: Maternal embryonic leucine zipper kinase (Homo sapiens) (UniProt Q14680)
[7] = molecular target: Cyclin-dependent kinase-like 5 (Homo sapiens) (UniProt O76039)
[8] = molecular target: Serine/threonine-protein kinase 38 (Homo sapiens) (UniProt Q15208)
[9] = molecular target: Tyrosine-protein kinase Fer (Homo sapiens) (UniProt P16591)
[10] = molecular target: Cyclin-dependent kinase 19 (Homo sapiens) (UniProt Q9BWU1)
[11] = molecular target: Ephrin type-A receptor 5 (Homo sapiens) (UniProt P54756)
[12] = test system: Receptor-type tyrosine-protein kinase FLT3 (Homo sapiens), P36888 [N841I]
[13] = molecular target: Testis-specific serine/threonine-protein kinase 1 (Homo sapiens) (UniProt Q9BXA7)
Chain of Testis-specific serine/threonine-protein kinase 1 (Homo sapiens) (Q9BXA7 whole entry): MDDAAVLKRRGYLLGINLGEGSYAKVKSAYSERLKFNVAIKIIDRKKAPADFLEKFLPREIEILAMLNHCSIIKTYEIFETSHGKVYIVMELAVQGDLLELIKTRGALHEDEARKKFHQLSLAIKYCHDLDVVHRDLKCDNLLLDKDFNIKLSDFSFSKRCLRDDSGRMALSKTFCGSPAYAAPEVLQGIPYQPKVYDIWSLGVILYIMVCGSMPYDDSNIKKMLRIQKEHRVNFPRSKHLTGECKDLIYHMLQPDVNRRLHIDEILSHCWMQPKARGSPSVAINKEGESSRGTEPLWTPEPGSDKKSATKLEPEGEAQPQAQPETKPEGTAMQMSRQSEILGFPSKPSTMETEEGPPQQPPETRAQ

[14] = molecular target: Serine/threonine-protein kinase WNK4 (Homo sapiens) (UniProt Q96J92)
Chain of Serine/threonine-protein kinase WNK4 (Homo sapiens) (Q96J92 whole entry): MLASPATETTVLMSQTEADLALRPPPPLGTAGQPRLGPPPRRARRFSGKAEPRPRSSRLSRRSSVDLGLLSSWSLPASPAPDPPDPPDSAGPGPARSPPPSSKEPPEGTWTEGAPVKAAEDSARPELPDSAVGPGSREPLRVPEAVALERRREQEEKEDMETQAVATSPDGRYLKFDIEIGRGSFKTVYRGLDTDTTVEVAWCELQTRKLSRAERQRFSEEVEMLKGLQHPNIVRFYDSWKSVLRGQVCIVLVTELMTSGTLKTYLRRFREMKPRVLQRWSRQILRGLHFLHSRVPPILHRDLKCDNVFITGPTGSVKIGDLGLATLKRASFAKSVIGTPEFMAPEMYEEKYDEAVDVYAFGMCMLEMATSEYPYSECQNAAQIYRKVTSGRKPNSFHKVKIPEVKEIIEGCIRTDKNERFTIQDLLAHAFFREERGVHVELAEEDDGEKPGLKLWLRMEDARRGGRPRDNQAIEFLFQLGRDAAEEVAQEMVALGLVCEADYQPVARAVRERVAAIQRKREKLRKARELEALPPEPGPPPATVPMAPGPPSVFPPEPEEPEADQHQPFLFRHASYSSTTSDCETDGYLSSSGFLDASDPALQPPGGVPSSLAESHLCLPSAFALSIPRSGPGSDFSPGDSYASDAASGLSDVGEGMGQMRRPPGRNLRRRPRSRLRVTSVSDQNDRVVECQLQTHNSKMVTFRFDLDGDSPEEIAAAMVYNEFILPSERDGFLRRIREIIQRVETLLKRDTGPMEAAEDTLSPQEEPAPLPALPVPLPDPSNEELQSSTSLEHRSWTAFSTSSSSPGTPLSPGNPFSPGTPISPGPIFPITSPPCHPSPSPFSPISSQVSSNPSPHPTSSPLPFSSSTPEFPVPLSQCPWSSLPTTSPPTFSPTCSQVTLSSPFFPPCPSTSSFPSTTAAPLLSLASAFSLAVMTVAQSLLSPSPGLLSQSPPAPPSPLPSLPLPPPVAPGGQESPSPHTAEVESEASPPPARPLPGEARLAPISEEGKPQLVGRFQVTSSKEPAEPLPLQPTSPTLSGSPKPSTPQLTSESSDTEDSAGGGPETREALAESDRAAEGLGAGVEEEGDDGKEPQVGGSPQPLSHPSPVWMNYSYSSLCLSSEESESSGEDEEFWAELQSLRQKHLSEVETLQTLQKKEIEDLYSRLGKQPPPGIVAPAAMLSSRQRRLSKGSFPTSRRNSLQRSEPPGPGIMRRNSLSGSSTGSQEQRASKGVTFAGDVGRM

[15] = molecular target: Receptor tyrosine-protein kinase erbB-2 (Homo sapiens) (UniProt P04626)
[16] = molecular target: Ephrin type-A receptor 1 (Homo sapiens) (UniProt P21709)
[17] = molecular target: Calcium/calmodulin-dependent protein kinase kinase 1 (Homo sapiens) (UniProt Q8N5S9)
[18] = molecular target: Tyrosine-protein kinase ITK/TSK (Homo sapiens) (UniProt Q08881)
[19] = molecular target: Phosphatidylinositol 3-kinase C2 domain-containing subunit gamma (Homo sapiens) (UniProt O75747)
[20] = molecular target: Serine/threonine-protein kinase TBK1 (Homo sapiens) (UniProt Q9UHD2)
[21] = molecular target: Ribosomal protein S6 kinase alpha-3 (Homo sapiens) (UniProt P51812)
[22] = molecular target: cGMP-dependent protein kinase 1 (Homo sapiens) (UniProt Q13976)
Chain of cGMP-dependent protein kinase 1 (Homo sapiens) (Q13976 whole entry): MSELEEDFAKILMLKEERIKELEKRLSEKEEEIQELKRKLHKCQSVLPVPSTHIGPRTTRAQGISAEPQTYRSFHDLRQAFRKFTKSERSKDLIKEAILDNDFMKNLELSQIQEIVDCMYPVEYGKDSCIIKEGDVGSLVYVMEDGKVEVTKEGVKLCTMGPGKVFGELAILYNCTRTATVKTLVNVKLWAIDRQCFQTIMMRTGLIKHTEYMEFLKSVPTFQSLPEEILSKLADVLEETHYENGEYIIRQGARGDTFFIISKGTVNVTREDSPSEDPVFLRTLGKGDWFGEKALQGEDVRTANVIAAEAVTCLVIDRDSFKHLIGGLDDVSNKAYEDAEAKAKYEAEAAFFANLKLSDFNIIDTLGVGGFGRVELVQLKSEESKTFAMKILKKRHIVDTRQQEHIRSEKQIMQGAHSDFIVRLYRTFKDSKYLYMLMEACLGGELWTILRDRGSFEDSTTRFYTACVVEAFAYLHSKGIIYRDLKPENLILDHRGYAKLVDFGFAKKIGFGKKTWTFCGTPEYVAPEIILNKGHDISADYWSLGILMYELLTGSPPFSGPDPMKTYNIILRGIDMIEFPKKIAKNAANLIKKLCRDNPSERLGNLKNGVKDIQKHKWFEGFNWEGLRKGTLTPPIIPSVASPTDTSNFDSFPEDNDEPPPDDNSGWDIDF

[23] = molecular target: Cyclin-dependent kinase 8 (Homo sapiens) (UniProt P49336)
Chain of Cyclin-dependent kinase 8 (Homo sapiens) (P49336 whole entry): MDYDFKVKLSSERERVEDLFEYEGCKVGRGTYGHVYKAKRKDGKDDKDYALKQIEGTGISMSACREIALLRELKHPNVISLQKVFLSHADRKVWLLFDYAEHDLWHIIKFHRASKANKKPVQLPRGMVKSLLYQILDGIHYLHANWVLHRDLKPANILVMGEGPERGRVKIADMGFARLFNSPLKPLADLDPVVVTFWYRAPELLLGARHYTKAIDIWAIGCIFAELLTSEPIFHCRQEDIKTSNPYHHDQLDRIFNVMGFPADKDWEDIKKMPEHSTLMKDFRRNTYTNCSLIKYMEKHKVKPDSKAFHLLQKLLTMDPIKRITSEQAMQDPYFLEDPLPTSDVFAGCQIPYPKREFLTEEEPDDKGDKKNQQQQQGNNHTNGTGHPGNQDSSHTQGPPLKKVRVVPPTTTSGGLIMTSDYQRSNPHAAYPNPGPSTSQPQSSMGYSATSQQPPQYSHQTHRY

[24] = molecular target: Hormonally up-regulated neu tumor-associated kinase (Homo sapiens) (UniProt P57058)
[25] = molecular target: Eukaryotic translation initiation factor 2-alpha kinase 1 (Homo sapiens) (UniProt Q9BQI3)
[26] = molecular target: Serine/threonine-protein kinase BRSK1 (Homo sapiens) (UniProt Q8TDC3)
[27] = molecular target: Citron Rho-interacting kinase (Homo sapiens) (UniProt O14578)
[28] = molecular target: Wee1-like protein kinase (Homo sapiens) (UniProt P30291)
[29] = molecular target: Muscle, skeletal receptor tyrosine-protein kinase (Homo sapiens) (UniProt O15146)
[30] = molecular target: Serine/threonine-protein kinase 3 (Homo sapiens) (UniProt Q13188)
[31] = molecular target: Receptor-type tyrosine-protein kinase FLT3 (Homo sapiens) (UniProt P36888)
[32] = molecular target: Serine/threonine-protein kinase TAO2 (Homo sapiens) (UniProt Q9UL54)
[33] = molecular target: Ephrin type-A receptor 7 (Homo sapiens) (UniProt Q15375)
[34] = molecular target: Atypical kinase COQ8B, mitochondrial (Homo sapiens) (UniProt Q96D53)
[35] = molecular target: Dual specificity mitogen-activated protein kinase kinase 6 (Homo sapiens) (UniProt P52564)
[36] = molecular target: Serine/threonine-protein kinase MRCK gamma (Homo sapiens) (UniProt Q6DT37)
[37] = molecular target: cAMP-dependent protein kinase catalytic subunit alpha (Homo sapiens) (UniProt P17612)
[38] = molecular target: SNF-related serine/threonine-protein kinase (Homo sapiens) (UniProt Q9NRH2)
[39] = molecular target: Myosin-IIIb (Homo sapiens) (UniProt Q8WXR4)
[40] = test system: Epidermal growth factor receptor (Homo sapiens), P00533 [L858R]
[41] = molecular target: Activin receptor type-2B (Homo sapiens) (UniProt Q13705)
Chain of Activin receptor type-2B (Homo sapiens) (Q13705 whole entry): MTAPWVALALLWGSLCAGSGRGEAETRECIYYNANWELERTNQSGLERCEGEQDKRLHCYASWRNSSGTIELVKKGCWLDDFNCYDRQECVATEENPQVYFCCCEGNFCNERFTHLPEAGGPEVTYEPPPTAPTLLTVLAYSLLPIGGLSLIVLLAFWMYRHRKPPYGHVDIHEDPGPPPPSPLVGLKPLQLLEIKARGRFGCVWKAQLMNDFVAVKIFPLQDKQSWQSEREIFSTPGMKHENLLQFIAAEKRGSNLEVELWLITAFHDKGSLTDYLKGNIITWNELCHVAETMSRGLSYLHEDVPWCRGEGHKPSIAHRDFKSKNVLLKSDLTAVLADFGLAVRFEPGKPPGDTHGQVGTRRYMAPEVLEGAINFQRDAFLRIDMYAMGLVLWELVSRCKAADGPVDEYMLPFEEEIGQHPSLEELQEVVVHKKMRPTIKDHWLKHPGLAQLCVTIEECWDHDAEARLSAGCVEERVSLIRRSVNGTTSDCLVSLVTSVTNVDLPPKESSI

[42] = molecular target: Serine/threonine-protein kinase pim-3 (Homo sapiens) (UniProt Q86V86)
[43] = molecular target: Cyclin-dependent kinase 4 (Homo sapiens) (UniProt P11802)
[44] = molecular target: Dual specificity protein kinase TTK (Homo sapiens) (UniProt P33981)
Chain of Dual specificity protein kinase TTK (Homo sapiens) (P33981 whole entry): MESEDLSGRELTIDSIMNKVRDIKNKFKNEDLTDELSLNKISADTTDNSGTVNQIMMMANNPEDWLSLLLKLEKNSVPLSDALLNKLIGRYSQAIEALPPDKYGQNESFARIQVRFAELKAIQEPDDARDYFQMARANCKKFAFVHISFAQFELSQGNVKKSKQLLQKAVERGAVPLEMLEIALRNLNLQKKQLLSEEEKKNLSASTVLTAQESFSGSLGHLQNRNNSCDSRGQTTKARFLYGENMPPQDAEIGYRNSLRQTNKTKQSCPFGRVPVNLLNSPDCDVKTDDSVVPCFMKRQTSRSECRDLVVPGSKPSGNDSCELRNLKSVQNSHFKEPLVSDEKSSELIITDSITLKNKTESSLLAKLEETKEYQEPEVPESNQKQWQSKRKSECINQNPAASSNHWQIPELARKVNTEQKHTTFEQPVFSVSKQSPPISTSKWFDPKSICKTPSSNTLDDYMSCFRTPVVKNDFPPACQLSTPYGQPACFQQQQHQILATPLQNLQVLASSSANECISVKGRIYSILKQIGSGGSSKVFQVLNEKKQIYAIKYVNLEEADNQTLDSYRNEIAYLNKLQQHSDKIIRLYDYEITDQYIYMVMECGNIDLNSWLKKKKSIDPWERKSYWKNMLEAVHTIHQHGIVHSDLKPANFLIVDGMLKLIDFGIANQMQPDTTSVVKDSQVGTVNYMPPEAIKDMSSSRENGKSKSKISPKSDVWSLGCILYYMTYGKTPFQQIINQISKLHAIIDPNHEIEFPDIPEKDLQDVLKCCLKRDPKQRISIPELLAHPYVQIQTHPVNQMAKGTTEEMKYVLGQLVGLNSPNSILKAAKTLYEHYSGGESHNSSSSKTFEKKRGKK

[45] = molecular target: Phosphatidylinositol 5-phosphate 4-kinase type-2 beta (Homo sapiens) (UniProt P78356)
Chain of Phosphatidylinositol 5-phosphate 4-kinase type-2 beta (Homo sapiens) (P78356 whole entry): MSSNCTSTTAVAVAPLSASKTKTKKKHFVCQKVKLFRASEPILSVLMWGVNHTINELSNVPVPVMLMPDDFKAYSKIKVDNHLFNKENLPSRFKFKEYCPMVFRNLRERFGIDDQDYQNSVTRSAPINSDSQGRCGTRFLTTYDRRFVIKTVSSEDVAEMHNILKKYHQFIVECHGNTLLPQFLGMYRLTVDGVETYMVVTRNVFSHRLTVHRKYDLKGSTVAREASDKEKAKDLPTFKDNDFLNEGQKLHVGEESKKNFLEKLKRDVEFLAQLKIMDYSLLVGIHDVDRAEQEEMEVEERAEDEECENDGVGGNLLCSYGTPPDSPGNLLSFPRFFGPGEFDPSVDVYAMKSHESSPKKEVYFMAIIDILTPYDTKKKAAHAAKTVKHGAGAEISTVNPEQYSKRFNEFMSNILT

[46] = molecular target: Fibroblast growth factor receptor 3 (Homo sapiens) (UniProt P22607)

Measured: residual activity

Chain of Casein kinase I isoform alpha-like (Homo sapiens) (Q8N752 whole entry, canonical isoform): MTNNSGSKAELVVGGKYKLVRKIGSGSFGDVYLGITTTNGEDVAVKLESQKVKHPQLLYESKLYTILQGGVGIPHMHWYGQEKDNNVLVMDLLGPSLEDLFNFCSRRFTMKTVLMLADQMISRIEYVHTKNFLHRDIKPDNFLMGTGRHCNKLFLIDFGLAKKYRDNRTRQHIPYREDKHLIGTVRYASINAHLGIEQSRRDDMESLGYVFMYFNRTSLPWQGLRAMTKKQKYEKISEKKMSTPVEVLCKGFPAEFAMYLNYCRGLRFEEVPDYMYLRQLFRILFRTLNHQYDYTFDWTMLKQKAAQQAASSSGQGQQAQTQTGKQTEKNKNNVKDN

CS(=O)(=O)N1CCCC(NC(=O)[C@H](CCC2CCCCC2)NC(=O)c2ccc(CNc3ncnc4c3nnn4-c3ccccc3)cc2)C1 (some centres not stated) [SR-301]
inactive: [1] 100% | [2] 100% | [3] 100% | [4] 95% | [5] 100% | [6] 100% | [7] 100% | [8] 83% | [9] 86% | [10] 90% | [11] 96% | [12] 99% | [13] 85% | [14] 100% | [15] 100% | [16] 95% | [17] 88% | [18] 100% | [19] 81% | [20] 88% | [21] 100% | [22] 95% | [23] 100% | [24] 100% | [25] 81% | [26] 100% | [27] 98% | [28] 72% | [29] 100% | [30] 95% | [31] 82% | [32] 93% | [33] 98% | [34] 100% | [35] 67% | [36] 99% | [37] 100% | [38] 81% | [39] 100% | [40] 100% | [41] 83% | [42] 100% | [43] 91% | [44] 91% | [45] 100% | [46] 100%

CS(=O)(=O)N1CCCC(NC(=O)[C@H](CCC2CCCCC2)NC(=O)c2ccc(CNC(=O)c3cnc4ccccn34)cc2)C1 (some centres not stated) [SR-302]
active: [23] 42%
inactive: [1] 99% | [2] 76% | [3] 100% | [4] 89% | [5] 94% | [6] 100% | [7] 100% | [8] 81% | [9] 99% | [10] 100% | [11] 100% | [12] 67% | [13] 94% | [14] 80% | [15] 100% | [16] 93% | [17] 84% | [18] 90% | [19] 100% | [20] 75% | [21] 100% | [22] 100% | [24] 100% | [25] 91% | [26] 72% | [27] 100% | [28] 100% | [29] 91% | [30] 88% | [31] 82% | [32] 91% | [33] 96% | [34] 100% | [35] 72% | [36] 98% | [37] 100% | [38] 69% | [39] 89% | [40] 83% | [41] 100% | [42] 99% | [43] 99% | [44] 91% | [45] 100% | [46] 100%
